The structures appear in SMILES notation.

The subject of data set [1] is CD4+ cell. The data set can be described thus: Inhibition of PHA induced CD4+ cell proliferation in PBMC. Type of data set: cell-based. As to conditions: Homo sapiens, isolated PBMC, 48 h, flow cytometry. On the procedure: d. Inhibition of PHA Induced CD4+ Cell Proliferation in PBMC:
Isolated PBMC were treated with desired concentration of inhibitor and induced with 5 μM PHA. % CD4+ cell viability was determined after 48 h by flow cytometry. Data were analyzed using GraphPad Prism. IC50 values for each compound were determined based on the percent inhibition due to the test compound compared to the control.

The target in another data set is T1, h-DHODH (Homo sapiens, UniProt Q02127).
T1 construct: endogenous in cells; host or cells: U937 cells (membrane fraction, solubilised with 1% octyl glucoside)
The data set can be described thus: Dihydro-orotate dehydrogenase inhibition assay (U937 membrane preparations, DCIP reduction). Conditions: U937 membrane preparation. Format: biochemical. Summed up:
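Detergent (1% octyl glucoside) extract of U937 cell membranes; dihydro-orotate-driven DCIP reduction followed as absorbance change at 600 nm after 4 h at 37° C. IC50 derived from percent inhibition of […].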

Data set [2] deals with CD4+ cell. The data set can be described thus: Inhibition of PHA induced CD4+ cell proliferation in human whole blood. Type of data set: cell-based. As to conditions: 48 h, flow cytometry. On the procedure: c. Inhibition of PHA Induced CD4+ Cell Proliferation in Human Whole Blood:
HWB or were treated with desired concentration of inhibitor and induced with 5 μM PHA. % CD4+ cell viability was determined after 48 h by flow cytometry. Data were analyzed using GraphPad Prism. Percent inhibition and IC50 values for each compound were determined based on the percent inhibition due to the test compound compared to the control.

Another data set deals with PBMC. Nature of the data set: Inhibition of PHA induced PBMC proliferation (MTT). Format: cell-based. As to conditions: Homo sapiens, 48 h. On the procedure:
a. Inhibition of PHA Induced PBMC Proliferation:
PBMC from freshly collected HWB was isolated by density gradient using Histopaque and seeded in a 96-well plate. Wells were incubated with desired concentrations of the inhibitor for 15 min. Proliferation was induced by the addition of 2 μM Phytohemagglutinin at 37° C. in an atmosphere containing […]. Viability was determined after 48 h using an 3-(4,5-Dimethylthiazol-2-yl)-2,5-diphenyltetrazolium bromide (MTT) assay. Data were analyzed using GraphPad Prism. percent inhibition and/or GI50 values for each compound were determined based on the percent inhibition due to the test compound compared to the control.

The test system of a further data set is IL-17. Nature of the data set: Inhibition of IL-17 release from mouse splenocytes (PMA + ionomycin, ELISA). Format: cell-based, Balb/c mice. As to conditions: Splenocyte, 3 h. Put shortly: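 Balb/c splenocytes (1×10^6 cells/ml, RPMI) were pretreated with inhibitor for 15 min, then stimulated with 10 ng/ml PMA plus 1 μM ionomycin. Supernatant IL-17 was measured by ELISA after 3 h. IC50 was derived from percent inhibition relative to control.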

Data set [3] in a line: Single dose oral hepatotoxicity assay. Format: in vivo, BALB/cJ mice. Conditions: serum, 24 hr after 100 mg/kg po single dose, mice. On the procedure: 5. Single Dose Oral Hepatotoxicity Assay:
BALB/cJ (n=4 or 5/sex) mice aged 8 to 10 weeks, with weights ranging from 18 to 25 g were used. They were housed under conditions of controlled temperature and humidity and a 12-h light/dark cycle. They were given continuous access to bottled spring water and fed a standard chow at ad libitum. The mice were allowed to acclimate for 1 week before use. On the day of experiment mice were fasted overnight for 12 h and administered with test item formulation (100 mg/kg·b·wt/po) or vehicle (10 ml/kg·b·wt/po) by oral route and food was given 4 hr after test item administration. After 24 hr post administration blood samples were collected from orbital sinus of all the animals and serum was separated to assess the hepatotoxicity. Biochemical evaluation of liver function was determined by measuring serum enzyme activities of alanine aminotransferase (ALT) and aspartate aminotransferase (AST) using commercially available kits from Sigma (St. Louis, Mo.).

In another data set the test system is IL17. The data set can be described thus: Inhibition of PHA induced cytokine (IL17) release in PBMC. Type of data set: cell-based. As to conditions: Homo sapiens, 48 h, ELISA. On the procedure:
b. Inhibition of PHA Induced Cytokine (IL17) Release:
PBMC from freshly collected HWB were isolated by density gradient using Histopaque and seeded in a 96-well plate. Wells were incubated with desired concentrations of the inhibitor for 15 min. Proliferation was induced by the addition of 2 μM Phytohemagglutinin at 37° C. in an atmosphere containing […]. Supernatant was collected after 48 h for estimation of cytokines by ELISA. Data were analyzed using GraphPad Prism. Percent inhibition and IC50 values for each compound were determined based on the percent inhibition due to the test compound compared to the control.
(In general: An ELISA detects its analyte on a solid surface through an enzyme-linked reagent.)

The subject of another data set is IL-17 secreting cells. Nature of the data set: Determination of IL-17 producing cells by flow cytometry in PBMC. Type of data set: cell-based. As to conditions: human PBMC, Cytostim, 4 h, read-out: inhibition of IL17 (IL-17 secreting cells normalized to total CD4+ cells). On the procedure: 3. Determination of IL-17 Producing Cells by Flow Cytometry:
PBMC isolated from human blood were stimulated and treated with desired concentrations of the test compounds prior to stimulation with Cytostim (Milteny Biotech, Germany). After 4 h, IL-17 secreting cells were stained using the IL-17 secretion assay kit as per the manufacturer's instruction and normalized to total CD4+ cells within the PBMC population. Data were analyzed using Graph pad prism.
A general note: A flow cytometer gives signals particle by particle.

For the next data set, the system named is HIV. As to conditions: at a concentration that can be obtained with conventional dosing; cited from earlier work.
The conditions of data set [4]: patients; cited from earlier work.

T1 sequence (Q02127 whole entry): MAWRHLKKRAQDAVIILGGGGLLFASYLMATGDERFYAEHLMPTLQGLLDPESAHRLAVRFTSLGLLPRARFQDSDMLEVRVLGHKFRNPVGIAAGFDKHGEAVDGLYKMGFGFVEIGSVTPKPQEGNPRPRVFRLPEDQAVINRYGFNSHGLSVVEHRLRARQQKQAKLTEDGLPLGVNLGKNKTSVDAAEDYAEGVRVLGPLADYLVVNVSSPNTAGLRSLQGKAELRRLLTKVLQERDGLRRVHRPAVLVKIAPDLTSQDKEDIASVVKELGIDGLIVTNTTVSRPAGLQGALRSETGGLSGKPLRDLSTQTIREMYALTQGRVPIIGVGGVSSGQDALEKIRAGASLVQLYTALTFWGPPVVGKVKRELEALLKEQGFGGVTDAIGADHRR

In the case of `CCc1c[nH]c2ccc(-c3cc(F)c(NC(=O)c4ccccc4C(=O)O)c(F)c3)cc12` [Example 75, 2-[4-(3-ethyl-1H-indol-5-yl)-2,6-difluorophenylcarbamoyl]benzoic acid], the melting point – broadly, the temperature, or range, at which the solid turns liquid – was 157.9 to 160.9 °C. Moreover, the inhibition – broadly, the share of the control response that was lost under treatment – at 1 µM in the data set on CD4+ cell [1] was > 90%. In addition, the IC50 (commonly the concentration needed to halve the response being measured) against h-DHODH was found to be 1.52 nM. In addition, testing at 0.3 µM against h-DHODH (compound tested at 0.3 uM (footnote *)) gave an inhibition of 100%. Moreover, the inhibition at 1 µM in the data set on CD4+ cell [2] was > 65%. Moreover, in the data set on PBMC, the inhibition at 10 µM was > 70%. In addition, in the data set on IL-17, the inhibition at 10 µM is 29.4% and the IC50 was 32900 nM. In data set [3], this compound registered an ALT of 93.9 U/L and an AST of 210.8 U/L.
For `CCOc1cccc(-c2ccc(NC(=O)c3ccccc3C(=O)O)cc2)c1` [Example 70, 2-(3′-ethoxybiphenyl-4-ylcarbamoyl)benzoic acid], on h-DHODH, the inhibition at 1 µM came out at 14%. Further, in the data set on IL-17, the inhibition at 10 µM is 48.4% and the IC50 was 9110 nM. In [3], the ALT was 84 U/L and the AST is 210.4 U/L.
The compound `CC(C)COc1cccc(-c2cc(F)c(NC(=O)c3ccccc3C(=O)O)c(Cl)c2)c1` [Example 31, 2-(3-Chloro-5-fluoro-3′-isobutoxybiphenyl-4-ylcarbamoyl)benzoic acid] returned a melting point of 202 to 205.5 °C. In addition, on h-DHODH, the inhibition at 1 µM amounted to 73.5% and the IC50 worked out at 44.6 nM. Besides, the inhibition at 10 µM in the data set on IL-17 came to 21.1%. In data set [3], this compound showed an ALT of 65.1 U/L and an AST of 161.4 U/L.
Compound `CCOc1cccc(-c2cc(F)c(NC(=O)c3ccccc3C(=O)O)c(F)c2)c1` [Example 5, 2-(3′-Ethoxy-3,5-difluorobiphenyl-4-ylcarbamoyl)benzoic acid] had a melting point of 136 to 141 °C. At h-DHODH, this compound came in with an inhibition at 1 µM of 85.7% and an IC50 of 49.8 nM. Also, the inhibition at 10 µM in the data set with IL17 is > 50%. Besides, the inhibition at 10 µM in the data set with IL-17 was 30.8%. Further, in data set [3], the ALT was determined as 113.6 U/L and the AST came to 137.8 U/L.
On to `CCCCOc1cccc(-c2cc(F)c(NC(=O)c3ccccc3C(=O)O)c(Cl)c2)c1` [Example 29, 2-(3′-butoxy-3-chloro-5-fluorobiphenyl-4-ylcarbamoyl)benzoic acid], for which the melting point was 128 to 130 °C. The inhibition at 1 µM with CD4+ cell [1] was > 90%. For the same compound, at h-DHODH, 1 µM produced 94% inhibition and half-maximal inhibition (IC50) was put at 7.93 nM. Also, the inhibition at 1 µM with IL-17 secreting cells amounted to 43.6%. Besides, in the data set with CD4+ cell [2], the inhibition at 1 µM is > 65%. The inhibition at 10 µM in the data set with PBMC was > 70%. In the data set on IL-17, the inhibition at 10 µM was 46.1% and the half-maximal inhibitory concentration (IC50) came to 18800 nM. In [3], this compound came in with an ALT of 67.9 U/L and an AST of 114.4 U/L.
The compound `CCCOc1cccc(-c2cc(F)c(NC(=O)c3ccccc3C(=O)O)c(Cl)c2)c1` [Example 19, 2-(3-Chloro-5-fluoro-3′-propoxybiphenyl-4-ylcarbamoyl)benzoic acid] registered a melting point of 144 to 148 °C. At h-DHODH, this compound had an inhibition at 1 µM of 82.2% and an IC50 of 44.6 nM. Besides, in the data set on IL-17, the inhibition at 10 µM is 19%. Besides, in [3], the ALT was found to be 87.9 U/L and the AST is on record as 126.5 U/L.
For `CCCCOc1cccc(-c2cc(F)c(NC(=O)c3ccccc3C(=O)O)c(F)c2)c1` [Example 35, 2-(3′-Butoxy-3,5-difluorobiphenyl-4-ylcarbamoyl)benzoic acid], the melting point was in the range of 119.3 to 123.3 °C. Besides, at h-DHODH, the inhibition at 1 µM was 86.5% and the IC50 is 11.9 nM. Besides, in the data set on IL-17, the inhibition at 10 µM was 7.76%. In data set [3], this compound returned an ALT of 108.3 U/L and an AST of 172 U/L.
On to `Cc1oncc1C(=O)Nc1ccc(C(F)(F)F)cc1` [leflunomide, Leflunomide], for which the “reduction of HIV replication” value in the data set with HIV is recorded as “about 75%”. Further, in [4], the half-life time result was “approximately 2 weeks”.
Compound `O=C(O)c1ccccc1C(=O)Nc1c(F)cc(-c2cccc(OC3CCCC3)c2)cc1Cl` [Example 42, 2-(3-Chloro-3′-(cyclopentyloxy)-5-fluorobiphenyl-4-ylcarbamoyl)benzoic acid] gave a melting point of 122 to 126 °C. Also, at h-DHODH, at 1 µM the inhibition was 76.9% and the IC50 is 24 nM. In the data set with PBMC, the inhibition at 10 µM was > 70%. The inhibition at 10 µM with IL-17 stood at 22.3%. Besides, in data set [3], the ALT was 113 U/L and the AST is listed as 189.6 U/L.

The record behind these values is US8686048B2, “Immunomodulator and anti-inflammatory compounds” (Rhizen Pharmaceuticals SA, priority 2010, dated 2014).
